Assay results as given in patent US20050118226A1, “Methods for treating ACAT-related diseases” (priority 2003, published 2005).
“Also recorded” adds a separate entry of the source.

Columns and labels:
[1] = test system: adrenal cortical cells; experiment: Adrenal gland histology (hematoxylin and eosin) for CP-113,818 toxicity in hAPP mice; type: in vivo; settings: 7.2 mg/kg per day, two months, 7.2 mg/kg/day
Experimental: Animals were sacrificed the day after the last MWM training, on day 57 of treatment. Blood was obtained by cardiac puncture and total serum was used for cholesterol determination. Transcardiac perfusion with 4C PBS was performed, followed by dissection. Brains were removed, divided along the sagittal plane and then either frozen in liquid nitrogen or imersion fixed with 4% paraformaldehyde for histologic evaluation. Liver was frozen in liquid nitrogen, and adrenal glands were fixed in 4% paraformaldehyde followed by standard paraffin embedding and sectioning. Hematoxylin and eosin stained 6-8 um sections were analyzed for evidence of CP-113,818 toxicity.
To characterize the effect of CP-113,818 treatment on AD-like pathology, we used hAPP mice that express human APP751 containing the London (V717I) and Swedish (K670M/N671L) mutations under the regulatory control of the murine Thy-1 promoter (mThy1-hAPP751) (Rockenstein et al., 2001). These animals develop detectable plaques in the neocortex and hippocampus at the ages of 4 and 6 months, respectively, and show memory deficits starting at 6 months of age. […] Therefore, we included similar numbers of male and female animals in both placebo and CP-113,818 groups to detect possible gender-specific effects of the inhibitor in our mouse model. […]

[2] = target: Aβ40 (Homo sapiens, UniProt P05067); experiment: Turbidity assay of Aβ40 aggregation; settings: 10 μM, absorbance at 400 nm over four days
Experimental: Aβ40 aggregation was monitored according to the method of Jarrett et al. (Jarrett et al., 1993). Briefly, Aβ40 (100 μg/ml) was incubated at 37° C. in TBS in a 384-well plate (60 μl/well). Well turbidity was monitored for four days by following absorbance at 400 nm. Aβ40 aggregation was promoted by the addition of “aged” (pre-incubated for 2 weeks at room temperature) Aβ42 (Aβ42/Aβ40=1/10) (Jarrett et al., 1993) or Zn/histine buffer (50 μM Zn++in 350 μM histine) (Bush et al., 1994). Absorbance of test wells was blanked on signal from samples without Aβ40. For some experiments, incubation buffers included CP-113,818 (10 μM).

[3] = test system: ACAT; experiment: Cholesterol determinations in non-transgenic mice given 21 day-release CP-113,818 pellets; type: in vivo; settings: 21 days
Description: hAPP transgenic mice overexpress human APP751 with the London (V717I) and Swedish (K670M/N671L) mutations under the regulatory control of the neuron specific murine (m)Thy-1 promoter (mThy-1-hAPP751; heterozygous with respect to the transgene, on a C57BL/6 F3 background) (Rockenstein et al., 2001). The hAPP colony was sustained by crossing transgenic APP751 with C57BL/6 (Harlan Winkelman, Germany). Corresponding littermates were used for control studies. All mice were housed according to standard animal care protocols, fed ad libitum with standard chow diet, and maintained in a pathogen-free environment in single ventilated cages at JSW Research. The transgenic status of each animal was confirmed by real time PCR of tail snips using specific primers and the appropriate hybridization probe. A modified Irvine test was regularly performed prior to the experiment to assess the neurological status of the animals; those showing disturbances were excluded from the experiments. Mice were then randomly assigned to different treatment groups and individually coded. Investigators performing behavioral testing, biochemical analyzes and histomorphological evaluations of the brains were blinded in terms of group allocation of the mice. CP-113,818, a potent inhibitor of both ACAT1 and ACAT2 (Chang et al., 2000), was graciously provided by Dr. James Harwood, Pfizer (Groton, Conn.). The drug was compounded in release pellets for continuous dosing by Innovative Research of America (Sarasota, Fla.). Only the test compound, but not carrier biopolymers and substances in the pellets, are released into the bloodstream. Pellets were generated to provide either 21 day or 60 days of continuous drug delivery. For implantation of pellets, animals were anesthized with isofluorance. Then, sterile pellets containing either CP-113,818 or placebo were implanted subcutaneously along the anterolateral aspect of the left shoulder with a special precision trocar in accordance with the suppliers instructions.
Tissues were homogenized in the presence of trypsin (10 mg/ml) in a Dounce homogenizer on ice. Protein concentration of the homogenate was determined using the BCA protein assay kit (Pierce). The tissue homogenate was extracted in chloroform:methanol (2:1, v/v) overnight. Before drying the chloroform phase, polyoxyethylene-9-lauryl ether (Sigma; 5 μl/ml of extract) was added. Dried lipid pellets were dissolved in water and total amount of cholesterol was determined with an enzymatic assay (Sigma; cat. no. 402-20). As control, free cholesterol was determined with a different enzymatic assay (R-Biopharm GmbH, Darmstadt, Germany; cat. no. E0139050). The amount of cholesteryl-esters was calculated by subtracting free from total cholesterol. Finally, the values were normalized to protein concentration of the tissue homogenate and expressed in mg of cholesterol per g of protein.
CP-113,818 is a fatty-acid anilide derivative designed to mimic the acyl-CoA substrate of ACAT and a potent ACAT inhibitor in vitro, cell culture, and animals (Chang et al., 2000; Marzetta et al., 1994; Puglielli et al., 2001). In order to determine the in vivo efficacy of CP-113,818 in reducing mouse brain cholesteryl-ester levels, we initially treated non-transgenic animals with the ACAT inhibitor. Most ACAT inhibitors are poorly absorbed when administered orally, and are quickly turned over in the blood or tissues (Marzetta et al., 1994). […]

[4] = rat, in vivo; cited from earlier work
[5] = 7.1 mg/kg/day, subcutaneous pellet, vs placebo

Aβ40, sequence (P05067 672-711 limits assumed): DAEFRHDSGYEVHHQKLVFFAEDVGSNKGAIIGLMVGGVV

CCCCCCCC[C@H](SCCCCCC)C(=O)Nc1c(SC)cc(C)nc1SC [CP-113,818]
adrenal toxicity (vacuolization in cytoplasm of adrenal cortical cells) [1]: no histologic evidence of toxicity; also recorded: did not show signs of vacuolization | effect on metal- or Aβ42-mediated aggregation of Aβ40 in vitro [2]: failed to directly inhibit; also recorded: does not directly modulate | effect on food consumption and body weight ([3]; 7.1 mg/kg per day): absence of any evident effect | reduction of cholesteryl-ester levels in the brain [3, 5]: 86% | reduction of total cholesterol in the serum [3, 5]: 29% | decrease of free or membrane cholesterol in the liver ([3]; 0.2-7.1 mg/kg/day, dose-dependent): up to 37% | effect on free cholesterol levels in the brain [3]: no effect | tolerated dose [4]: 150 mg/kg per day
